The results in this text go back to patent publication US20240400584A1, “COMPOUNDS AND METHODS FOR MODULATING SPLICING” (REMIX THERAPEUTICS INC., priority 2021, published 2024).

The test system of experiment [1] is HiBit-tagged HTT in K562 cells. The experiment can be described thus: HiBiT protein abundance assay, HTT. The format is cell-based, human. The settings on record: HiBiT-modified K562 cells, 24 hours, luminescence. The method, then:
(§1) Compounds described herein were used to screen for effects on quantitative protein abundance using a HiBit assay system (Promega). Quantitative protein abundance was determined by measuring the protein levels of HiBit-tagged protein targets expressed in cell culture via luminescence using the Nano-Glo HiBiT Lytic Detection System, which uses a split complementation assay format to reconstitute NanoBiT enzyme to generate a luminescent signal. A protein abundance assay was developed such that endogenous protein targets could be modified with the HiBiT peptide tag and their abundance could be assessed after compound treatment. Briefly, K562 cell lines containing a HiBiT-modification were treated with various compounds described herein (e.g., compounds of Formulas (I)). After treatment for 24 hours, the protein abundance of a specific target was determined by measuring luminescence.
(§2) Cells were maintained in IMDM with 10% FBS. Before the assay, cells were diluted with […] growth media (IMDM+[…] media) and were seeded in a 384-well plate at a density of 10000 cells/well (for each cell line listed in Table 8). Each compound was prepared as a 10-point 3-fold serial dilution in DMSO with the top dose at a final concentration of 10 μM in the well. Unmodified K562 cells were added at the previously specified density with DMSO to serve as an assay baseline and positive control (PC) and DMSO only with the respective modified cell lines was added to the negative control (NC) columns. Final DMSO concentration was kept at or below 0.25% o. Treated cell plates were placed in an incubator at 37° C. with […] for 24 hours. After 24 hours, 25 μL of Complete HiBit Lytic reagent was added to each well at room temperature (e.g. one plate requiring 10 mL Lytic Buffer, 100 μL LgBiT Protein, 200 μL Lytic Substrate), shaken for 5 minutes at 600 RPM, then left to sit for 10 minutes for signal to stabilize before reading on a Spark Cyto plate reader (Tecan) with a 500 ms measurement time.
(§3) To determine compound effects on protein abundance of each target in Table 9, the percent response for each respective cell line was calculated at each compound concentration as follows:
(§4) For the normalized response at each concentration, a four-parameter logistical regression was fit to the data and the response was interpolated at the […] to determine a concentration for protein abundance at 50% o (IC50) the untreated control.

A further experiment deals with MYB. The experiment can be described thus: Gene panel canonical junction qPCR assay, MYB CJ mRNA (Table 7). The class given is cell-based. The settings on record: Homo sapiens, read-out: MYB CJ mRNA decrease IC50. In outline:
(§5)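 A673 or K562 cells treated with compound; canonical exon-junction mRNA measured by RT-qPCR with junction-spanning primers/probe, normalised to GAPDH, GUSB or PPIA and DMSO (ΔΔCt, RQ). Percentage response set from fixed ΔCt assay windows, fitted to a 4-parameter logistic; IC50 is concentration giving 50% CJ decrease.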

Another experiment deals with Target C. The experiment in a line: Gene panel canonical junction qPCR assay, Target C CJ mRNA (Table 7). The format is cell-based, human. The settings on record: Homo sapiens, read-out: Target C CJ mRNA decrease IC50. In outline: as §5
For experiment [2], the system named is HiBit-tagged MYB in K562 cells. The experiment in a line: HiBiT protein abundance assay, MYB. The settings on record: HiBiT-modified K562 cells, 24 hours, luminescence. The class given is cell-based, human. The method, then:
as §1, §2, §3, §4
(In general: HiBiT is a short tag that completes a luciferase, so light tracks the accessible tagged protein.)

The subject of experiment [3] is HiBit-tagged Target C in K562 cells. The experiment can be described thus: HiBiT protein abundance assay, Target C. The class given is cell-based, human. The settings on record: HiBiT-modified K562 cells, 24 hours, luminescence. As for the experimental part:
as §1, §2, §3, §4

Consider `C[C@@H]1C[C@H](N(C)c2ccc3c(c2)OCc2cc(-c4cn[nH]c4)ccc2-3)CCN1` [Compound 101], for which the 50% inhibitory concentration (IC50) in experiment [1] is 1 to 10 µM; in the experiment on MYB it was above 10 µM; with Target C, above 10 µM; in experiment [2], 1 to 10 µM; in experiment [3], 1 to 10 µM.

For the compound `C[C@H]1C[C@H](N(C)c2ccc3c(c2)OCc2cc(-c4cn[nH]c4)ccc2-3)CCN1` [Compound 102], the IC50 in experiment [1] was 1 to 10 µM; in the experiment on MYB, above 10 µM; in the experiment with Target C, above 10 µM; in experiment [2], 1 to 10 µM; in experiment [3], 1 to 10 µM.

With `CN(c1ccc2c(c1)OCc1cc(-c3cn[nH]c3)ccc1-2)[C@@H]1C[C@H]2CC[C@@H](C1)N2` [Compound 104], the IC50 in experiment [1] was 1 to 10 µM; with MYB, above 10 µM; in the experiment on Target C, above 10 µM; in experiment [2], 1 to 10 µM; in experiment [3], 1 to 10 µM.

As to `CN(c1ccc2c(c1)OCc1cc(-n3cccn3)ccc1-2)[C@@H]1C[C@H]2CC[C@@H](C1)N2` [Compound 105], the IC50 is 1 to 10 µM in experiment [1], above 10 µM with MYB, 1 to 10 µM in experiment [2] and 1 to 10 µM in experiment [3].

On to `CN(c1ccc2c(n1)OCc1cc(-c3cn[nH]c3)ccc1-2)[C@@H]1C[C@H]2CC[C@@H](C1)N2` [Compound 108], for which the IC50 in experiment [1] is below 0.1 µM; in the experiment with MYB, 0.1 to 1 µM; with Target C, below 0.1 µM; in experiment [2], below 0.1 µM; in experiment [3], below 0.1 µM.

As to `CN(c1ccc2c(c1)CCOc1cc(-n3cccn3)ccc1-2)[C@@H]1C[C@H]2CC[C@@H](C1)N2` [Compound 113], the half-maximal inhibitory concentration (IC50) in experiment [1] is above 10 µM; with MYB it was above 10 µM; in the experiment on Target C, above 10 µM; in experiment [2], 1 to 10 µM; in experiment [3], above 10 µM.

For `CN(c1ccc2c(n1)OCc1cc(-c3cn[nH]c3)ccc1-2)C1CCNCC1` [Compound 116], the IC50 in experiment [1] lay in the range of 0.1 to 1 µM; with MYB, 1 to 10 µM; in the experiment with Target C it was 0.1 to 1 µM; in experiment [2], 1 to 10 µM; in experiment [3], 1 to 10 µM.

On to `CN(c1ccc2c(c1)COc1cc(-n3cccn3)ccc1-2)C1CC(C)(C)NC(C)(C)C1` [Compound 117], for which the IC50 (in experiment [1]; in the experiment with MYB; in experiment [2]; in experiment [3]) was 1 to 10 µM throughout.

As for `CC1(C)CC(Nc2ccc3c(c2)COc2cc(-n4cccn4)ccc2-3)CC(C)(C)N1` [Compound 118], the half-maximal inhibitory concentration (IC50) in experiment [1] was 1 to 10 µM; with MYB, above 10 µM; in experiment [2] it was 1 to 10 µM; in experiment [3], 1 to 10 µM.

For the compound `CN(c1ccc2c(n1)COc1cc(-c3cn[nH]c3)ccc1-2)[C@@H]1C[C@H]2CC[C@@H](C1)N2` [Compound 121], the IC50 in experiment [1] was below 0.1 µM; in the experiment with MYB it was 1 to 10 µM; in the experiment on Target C it was 0.1 to 1 µM; in experiment [2], 1 to 10 µM; in experiment [3] it was 0.1 to 1 µM.

Take `CN(c1ccc2c(n1)COc1cc(-n3cccn3)ccc1-2)[C@@H]1C[C@H]2CC[C@@H](C1)N2` [Compound 124]: the IC50 (in experiment [1]; in the experiment on MYB; with Target C; in experiment [2]; in experiment [3]) was 1 to 10 µM throughout.

For the compound `CN(c1ccc2c(n1)COc1cc(-n3cccn3)ccc1-2)C1CC(C)(C)NC(C)(C)C1` [Compound 125], the IC50 in experiment [1] was 1 to 10 µM; with MYB, above 10 µM; with Target C, above 10 µM; in experiment [2], 0.1 to 1 µM; in experiment [3] it was 1 to 10 µM.

As for `CN(c1ccc2c(n1)CCOc1cc(-n3cccn3)ccc1-2)C1CC(C)(C)NC(C)(C)C1` [Compound 129], the IC50 (in experiment [1]; in the experiment with MYB; in the experiment with Target C; in experiment [2]; in experiment [3]) was above 10 µM in each case.

The IC50 is the concentration at which inhibition is half-maximal.
